Earlier results as cited in patent US10722518B2, “Oxazine derivative for use in the treatment or prevention of cerebral amyloid angiopathy” (Novartis AG, priority 2016, dated 2020).

Test system: APP23 mice
Details: aged APP23 mice treated for three months; cited from earlier work

In the case of `Cc1cc(C#N)cnc1C(=O)Nc1ccc(F)c([C@]2(C)CO[C@@](C)(C(F)(F)F)C(N)=N2)c1` [NB360], the “effect on CAA-related microhaemorrhage (volumetric MRI)” value is listed as “no effect”.
